A word on the IC50: it is the concentration that gives 50% inhibition.

We go through ten compounds from patent publication US7820212B2, “Abietane diterpenoid compound, and composition comprising extract of Torreya nucifera, or abietane diterpenoid compounds or terpenoid compounds isolated from them for prevention and treatment of cardiovascular disease” (Korea Research Institute of Bioscience and Biotechnology, priority 2004, dated 2010).

The target in one experiment is T1, hACAT-1 (Homo sapiens, UniProt P35610).
T1 construct: made in house; host or cells: Hi5 insect cells infected with recombinant baculovirus (virus produced in sf9 cells); microsomal fraction used
T1 sequence (P35610 1-550): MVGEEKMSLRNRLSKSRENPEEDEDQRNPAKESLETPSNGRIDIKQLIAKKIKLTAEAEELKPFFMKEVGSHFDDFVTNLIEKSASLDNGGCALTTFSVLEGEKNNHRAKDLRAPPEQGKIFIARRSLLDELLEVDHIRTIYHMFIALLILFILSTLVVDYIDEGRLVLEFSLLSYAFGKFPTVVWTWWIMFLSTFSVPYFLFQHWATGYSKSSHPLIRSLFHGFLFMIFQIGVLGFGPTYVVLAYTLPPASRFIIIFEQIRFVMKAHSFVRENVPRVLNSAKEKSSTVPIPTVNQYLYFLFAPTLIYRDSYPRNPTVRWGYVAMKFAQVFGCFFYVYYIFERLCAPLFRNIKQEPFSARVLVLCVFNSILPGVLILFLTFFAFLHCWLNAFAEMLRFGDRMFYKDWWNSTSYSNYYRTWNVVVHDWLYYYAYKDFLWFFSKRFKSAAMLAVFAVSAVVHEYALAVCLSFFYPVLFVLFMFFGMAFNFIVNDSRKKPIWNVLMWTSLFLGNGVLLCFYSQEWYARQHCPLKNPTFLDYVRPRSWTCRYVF
Kind of experiment: ACAT activity, microsomal fraction of Hi5 cells over-expressing hACAT-1. Format: biochemical. The protocol:
(§1) In order to investigate the effect on hACAT-1 and hACAT-2 activities, hACAT-1 and hACAT-2 proteins were first obtained by taking advantage of baculovirus expression system.
(§2) cDNAs of hACAT-1 and hACAT-2 obtained from human liver cDNA library screening were inserted into baculovirus transfer vector, which was then introduced into insect sf9 cells to produce virus. Then, recombinant viruses of HACAT-1 and hACAT-2 were separated by plaque purification method, and amplification was performed three times to increase titer of viral stock. Hi5 insect cells having a good protein expression efficacy were infected with the recombinant virus, making multiplicity of infection as 1, followed by shaking culture at 27° C. for one day.
(§3) The cultured Hi5 cells over-expressing hACAT-1 and hACAT-2 were centrifuged at 500×g for 15 minutes to separate microsomal fraction. Then, cells were crushed in hypotonic buffer by quick freezing quick thawing, followed by ultracentrifugation at 100,000×g for one hour.
(§4) The obtained microsomal fractions were suspended in storage buffer solution, adjusting protein content to 8 mg/ml, which was stored in a deep freezer before using.
(§5) 6.67 μl of cholesterol dissolved in acetone at the concentration of 1 mg/ml was mixed with 6 μl of 10% triton WR 1339 (Sigma Co.) in acetone. And acetone was evaporated by nitrogen gas. Distilled water was added to the resultant mixture to adjust the content of cholesterol to […].
(§6) To 10 μl of cholesterol solution was added 10 μl of 1 M KH2PO4 (pH 7.4), 5 μl of 0.6 mM BSA (bovine serum albumin), 10 μl of the microsomal solution obtained above, 10 μl of sample (T. nucifera extracts or abietane diterpenoid compound isolated from the same) and 45 μl of distilled water (total 90 μl). The mixture was pre-incubated in a 37° C. water bath for 30 minutes.
(§7) 10 μl of [1-^14C]oleyl-CoA solution (0.05 μCi, final concentration 10 μM) was added to the pre-incubated mixture, which was reacted in a 37° C. water bath for 30 minutes. To the mixture was added 500 μl of isopropanol:heptane solution (4:1 (v/v)), 300 μl of heptane and 200 μl of 0.1 M KH2PO4 (pH 7.4), which was stirred vigorously with vortex and then allowed to phase separation under gravity at room temperature for 2 minutes.
(§8) The 200 μl of upper phase was put in a scintillation vial, to which 4 ml of scintillation solution (Lipoluma, Lumac Co.) was added. Radioactivity of the upper phase was measured by a scintillation counter (1450 Microbeta liquid scintillation counter, Wallacoy, Finland).
(§9) ACAT activity was calculated based on the radioactivity, the amount of synthesized cholesteryl oleate, measured above and expressed as a defined unit, pico mole per 1 mg of protein for 1 minute (pico mole/minute/mg protein).

Another experiment has as its target T2, hACAT-2 (Homo sapiens, UniProt O75908).
T2 construct: made in house; host or cells: Hi5 insect cells infected with recombinant baculovirus (virus produced in sf9 cells); microsomal fraction used
T2 sequence (O75908 1-522): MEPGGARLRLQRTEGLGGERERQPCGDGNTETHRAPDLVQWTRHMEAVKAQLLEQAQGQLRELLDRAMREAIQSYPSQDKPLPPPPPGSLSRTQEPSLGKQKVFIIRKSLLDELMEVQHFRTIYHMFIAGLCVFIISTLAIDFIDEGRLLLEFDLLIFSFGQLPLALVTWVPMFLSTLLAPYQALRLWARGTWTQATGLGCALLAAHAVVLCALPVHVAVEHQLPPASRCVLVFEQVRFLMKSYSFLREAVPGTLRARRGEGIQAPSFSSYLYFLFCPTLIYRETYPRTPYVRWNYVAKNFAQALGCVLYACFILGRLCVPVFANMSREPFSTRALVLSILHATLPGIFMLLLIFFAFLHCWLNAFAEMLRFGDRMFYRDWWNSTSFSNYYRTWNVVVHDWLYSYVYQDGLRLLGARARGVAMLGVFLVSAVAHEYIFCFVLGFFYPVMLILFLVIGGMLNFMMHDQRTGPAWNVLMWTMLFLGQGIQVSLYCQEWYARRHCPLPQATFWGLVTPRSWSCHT
Kind of experiment: ACAT activity, microsomal fraction of Hi5 cells over-expressing hACAT-2. The class given is biochemical. The protocol: as §1, §2, §3, §4, §5, §6, §7, §8, §9

A further experiment relates to LDL. Description: Anti-oxidative activity to LDL by TBARS method (Cu2+ mediated LDL-oxidation). Format: biochemical, human. The note with it: 37° C. 4 hours, MDA by TBARS. The procedure: Cu^2+ is known to mediate LDL-oxidation. Thus, in the present invention, dialdehyde, which is an oxidation product of unsaturated fatty acid formed during Cu^2+ mediated LDL-oxidation, was measured by thiobarbituric acid reactive substances (TBARS) method in order to investigate the LDL anti-oxidative activity of T. nucifera extracts or abietane diterpenoid compound separated from the same (Ahn, B. T. et. al., Low-density Lipoprotein-Antioxidant Constituents of Saururus Chinensis, J. Nat. Prod. 64: 1562, 2001). Centrifugation was performed with 300 ml of human blood plasma by using a ultracentrifuge at 100,000×g for 24 hours to remove floating VLDL/chylomicron layer in the upper part. The specific gravity of the remaining solution was adjusted to 1.063 g/ml. Centrifugation was performed again at 100,000×g for 24 hours, and 25 ml of the floating LDL (1.5˜2.5 mg protein/ml) in the upper layer was separated. […] T. nucifera extracts or abietane diterpenoid compound isolated from the same was dissolved in DMSO (dimethylsulfoxide), and the solution was diluted at different concentrations before use. […] OD540 was measured with a UV/VIS spectrophotometer. Malondialdehyde (MDA) detected by the above coloring was quantified. […] MDA was quantified by using the standard curve in experiments with T. nucifera extracts or abietane diterpenoid compound isolated from the same.

The next experiment deals with C57BL/6J mice. Kind of experiment: Cholesterol-lowering effect in mice on high-fat/high-cholesterol (HFHC) diet. The class given is in vivo. The note with it: for HDL-cholesterol / HDL/total cholesterol / Total cholesterol: blood plasma, 1% extracts or 0.1% probucol (wt/wt diet). The procedure:
30 specific pathogens free male C57BL/6J mice at the age of 6 weeks were raised in an animal facility, in which temperature was maintained as 22±3° C., humidity was kept as 55±10% and light was regulated as 12L/12D. The mice were adapted for about one week before being used for experiments. When they were at the age of 7 weeks (weight: 20˜22 g), they were divided into […] according to randomized block design. Group 1 mice were given with high-cholesterol/high-fat diet (CRF-1; AIN-76 test animal's normal diet supplemented with 1.25% cholesterol and 15% fat, Orient Yeast Co. Ltd., Japan), group 2 mice were given with high-fat/high-cholesterol (HFHC) diet together with 1% methanol extracts (wt/wt diet) of T. nucifera leaves (or 1% hot water extracts of T. nucifera leaves), and group 3 mice were treated with HFHC diet together with 0.1% probucol (wt/wt diet). All the mice of every group were free to take the diet and water for 10 days. Dietary intake was recorded everyday and weights of animals were measured every 5 days. Upon completion of breeding, all the records were analyzed. […] All the mice in three groups were sacrificed 10 days after the beginning of animal tests, then their blood was examined. Blood was taken from retro-orbital sinus of the sacrified mice by heparin treated capillary tube. Centrifugation was performed with blood at 8,000×g for 10 minutes. Blood plasma was separated from supernatant and then stored in a deep freezer. Total cholesterol content (TC) in blood plasma of each mouse of experimental group was measured by using a blood chemistry analyzer (CIBA Corning 550 Express, USA). In order to measure HDL-cholesterol, HDL measuring reagent (Chiron Diagnostics Co., USA), produced by the modified method for HDL measurement (references [(1) Stein E. A., et al.: Development and evaluation of a method for quantitation of plasma high-density-lipoprotein cholesterol. Clin. Chem. 24: 1112-1115, 1978; (2) Finley P. R., et al.: Cholesterol in high-density lipoprotein: use of Mg^2+/dextran sulfate in its enzymatic measurement. Clin. Chem., 24: 931-933, 1978; (3) Warnick G. R., et al.: Dextran sulfate-Mg^2+ precipitation procedure for quantitation of high-density lipoprotein cholesterol. Clin. Chem. 28: 1379-1388, 1982]) in which dextran sulfate and magnesium sulfate were added to serum of each mouse to precipitate LDL and VLDL and then HDL in supernatant was measured, was mixed with blood plasma of each experimental group at the ratio of 1:10. […] The resultant supernatant was put in a blood chemistry analyzer. A statistical computer program (Microsoft Excel, Version 7.0) was used to investigate and confirm (student t-test) the significance in difference in the results of blood analysis among experimental groups.

In the case of `C=C1CCC2[C@](C)(CO)CCC[C@]2(C)[C@H]1CC/C(C)=C\CO` (stereo partly drawn) [Kayadiol, kayadiol], the IC50 against hACAT-1 worked out at 120 µM; against hACAT-2 it was 155 µM.

Consider δ-cadinol, for which, on hACAT-1, half-maximal inhibition (IC50) required 79 µM.

As to `COC(OC)[C@]1(C)CCC[C@]2(C)c3cc(O)c(C(C)C)cc3CCC12` (stereo partly drawn) [R = dimethoxymethyl, 12-hydroxyabietic-8,11,13-trien-18-dimethylacetal], the values for the IC50 on hACAT-1 and against hACAT-2 were 98 µM and 199 µM, respectively.

As to `COC(=O)[C@]1(C)CCC[C@]2(C)c3cc(O)c(C(C)C)cc3CCC12` (stereo partly drawn) [R = methylester, 12-hydroxyabietic-8,11,13-trien-18-oic acid methylester], the IC50 against hACAT-1 is 129 µM; against hACAT-2, 309 µM.

Consider `CC(C)c1ccc2c(c1)CC[C@H]1[C@](C)(CO)CCC[C@]21C` [Dehydroabietinol, dehydroabietinol], for which the IC50 against hACAT-1 was found to be 41 µM; at hACAT-2 it was 60 µM.

For the compound `CC(C)c1cc2c(cc1O)[C@@]1(C)CCC[C@@](C)(CO)C1CC2` (stereo partly drawn) [R = hydroxymethyl, 18-hydroxyferruginol], the IC50 was 74 µM on hACAT-1 and 65 µM at hACAT-2.

The compound `CC(C)(Sc1cc(C(C)(C)C)c(O)c(C(C)(C)C)c1)Sc1cc(C(C)(C)C)c(O)c(C(C)(C)C)c1` [Probucol] registered an IC50 in the experiment on LDL of 1.55 µM. For the same compound, the “plasma HDL-cholesterol contents compared with negative control” value in the experiment with C57BL/6J mice (HFHC diet 10 days) was “not much different”. In the experiment with C57BL/6J mice (Table 3, HFHC diet 10 days), this compound registered an HDL-cholesterol of 41.7 ± 6.4 mg/dL, an HDL/total cholesterol of 24.3% and a Total cholesterol of 177.0 ± 33.7 mg/dL. Also, the “total cholesterol in plasma reduced, comparing to a control” value with C57BL/6J mice (Table 3 experiment, vs HFHC diet group) is 14.5%. In the experiment with C57BL/6J mice (Table 4, HFHC diet 10 days), this compound displayed an HDL-cholesterol of 44.3 ± 6.5 mg/dL, an HDL/total cholesterol of 24.5% and a Total cholesterol of 180.9 ± 32.6 mg/dL. The “plasma cholesterol reduced, comparing to a control” value in the experiment with C57BL/6J mice (Table 4 experiment, vs HFHC diet group) came out at 11.5%.

With `CC(C)c1cc2c(cc1O)[C@@]1(C)CCC[C@@](C)(C=O)C1CC2` (stereo partly drawn) [R = aldehyde, 18-oxoferruginol], the IC50 on hACAT-1 turned out to be 37 µM; against hACAT-2, 42 µM.

Consider `CC(C)c1cc2c(cc1O)[C@@]1(C)CCCC(C)(C)[C@@H]1CC2` [R = methyl, ferruginol], for which the IC50 at hACAT-1 came to 46 µM; on hACAT-2 it was 88 µM.

As for `C=C[C@@]1(C)CC[C@H]2C(=CC[C@@H]3[C@]2(C)CCC[C@@]3(C)C(=O)O)C1` [Isopimaric acid, isopimaric acid], the IC50 is 229 µM against hACAT-1 and 263 µM on hACAT-2.
